Experiments:
Substance-K receptor = biological target: T1, Substance-K receptor (Homo sapiens, UniProt P21452); type: cell membranes, CHO, Membrane; details: cho; also: in other assays of this panel Not Active means under 50% inhibition at 10 µM
T1 sequence (P21452 whole entry): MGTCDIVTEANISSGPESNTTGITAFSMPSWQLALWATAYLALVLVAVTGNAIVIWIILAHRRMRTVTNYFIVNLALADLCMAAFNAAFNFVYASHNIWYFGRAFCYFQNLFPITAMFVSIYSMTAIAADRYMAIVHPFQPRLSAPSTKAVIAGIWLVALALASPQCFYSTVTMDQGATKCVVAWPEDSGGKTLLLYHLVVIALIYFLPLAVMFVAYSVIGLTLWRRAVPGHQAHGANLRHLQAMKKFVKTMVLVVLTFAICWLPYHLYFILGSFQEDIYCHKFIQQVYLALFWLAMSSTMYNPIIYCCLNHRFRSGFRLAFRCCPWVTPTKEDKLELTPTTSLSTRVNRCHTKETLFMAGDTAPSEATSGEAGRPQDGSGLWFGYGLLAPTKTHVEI

[1] = DRUGMATRIX: Calcium Channel Type L, Benzothiazepine radioligand binding (ligand: [3H] Diltiazem); type: cell membranes, Rattus norvegicus, Wistar, Brain, Membrane; details: Not Active = under 50% inhibition at 10 µM
[2] = biological target: T2, Cysteinyl leukotriene receptor 1 (Homo sapiens, UniProt Q9Y271); type: cell membranes, CHO-K1, Membrane; details: cho-k1; also: in other assays of this panel Not Active means under 50% inhibition at 10 µM
T2 sequence (Q9Y271 whole entry): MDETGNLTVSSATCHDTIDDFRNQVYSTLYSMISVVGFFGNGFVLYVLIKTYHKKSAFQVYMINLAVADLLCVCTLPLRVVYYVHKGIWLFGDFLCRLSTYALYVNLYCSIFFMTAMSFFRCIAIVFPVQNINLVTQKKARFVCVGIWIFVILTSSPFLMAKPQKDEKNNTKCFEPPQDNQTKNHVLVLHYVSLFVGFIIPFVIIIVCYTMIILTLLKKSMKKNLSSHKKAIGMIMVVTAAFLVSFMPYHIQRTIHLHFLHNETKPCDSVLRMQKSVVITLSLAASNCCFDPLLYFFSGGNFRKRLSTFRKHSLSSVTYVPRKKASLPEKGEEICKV

[3] = biological target: Receptor tyrosine-protein kinase erbB-2 (Homo sapiens, UniProt P04626); assay: biochemical; type: cell-based, Insect cells; details: insect cells;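 also: inhibition of HER2 kinase enzyme activity, measured with Poly(Glu:Tyr) as the phosphorylation substrate; in other assays of this panel Not Active means under 50% inhibition at 10 µM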
[4] = biological target: Protein phosphatase 3 catalytic subunit alpha (Homo sapiens, UniProt Q08209); set-up: species or system Escherichia coli;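 also: inhibition of calcineurin (PP2B) enzyme activity, measured with DiFMUP as the substrate; in other assays of this panel Not Active means under 50% inhibition at 10 µM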
[5] = biological target: Beta-1 adrenergic receptor (Homo sapiens, UniProt P08588); assay: DRUGMATRIX: Adrenergic beta1 radioligand binding (ligand: [125I] Cyanopindolol); type: cell membranes, CHO-K1, Membrane; details: cho-k1; Not Active = under 50% inhibition at 10 µM
[6] = biological target: T3, Muscarinic acetylcholine receptor M2 (Homo sapiens, UniProt P08172); type: cell membranes, CHO-K1, Membrane; also: in other assays of this panel Not Active means under 50% inhibition at 10 µM
T3 sequence (P08172 whole entry): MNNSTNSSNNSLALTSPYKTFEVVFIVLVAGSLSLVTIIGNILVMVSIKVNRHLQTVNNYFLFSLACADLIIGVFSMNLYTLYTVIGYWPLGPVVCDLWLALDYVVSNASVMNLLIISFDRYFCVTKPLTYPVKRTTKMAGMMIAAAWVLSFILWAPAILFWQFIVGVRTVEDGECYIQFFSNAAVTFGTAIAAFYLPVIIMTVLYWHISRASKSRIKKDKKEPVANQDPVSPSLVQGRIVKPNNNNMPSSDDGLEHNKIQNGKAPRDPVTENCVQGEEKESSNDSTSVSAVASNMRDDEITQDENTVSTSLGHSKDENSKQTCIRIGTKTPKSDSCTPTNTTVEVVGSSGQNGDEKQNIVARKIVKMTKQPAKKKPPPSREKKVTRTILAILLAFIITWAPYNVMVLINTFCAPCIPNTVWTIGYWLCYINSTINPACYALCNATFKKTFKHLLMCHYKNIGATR

[7] = biological target: 5-hydroxytryptamine receptor 4 (Cavia porcellus, UniProt O70528); type: cell membranes, Dunkin-Hartley, Striatum, Membrane; also: in other assays of this panel Not Active means under 50% inhibition at 10 µM
[8] = DRUGMATRIX: Glutamate, Kainate radioligand binding (ligand: [3H] Kainic acid); type: cell membranes, Rattus norvegicus, Wistar, Brain, Membrane; details: Not Active = under 50% inhibition at 10 µM
Cytochrome P450 2D6 = Cytochrome P450 2D6 (Homo sapiens, UniProt P10635); also: in other assays of this panel Not Active means under 50% inhibition at 10 µM
Cytochrome P450 2C19 = Cytochrome P450 2C19 (Homo sapiens, UniProt P33261); also: in other assays of this panel Not Active means under 50% inhibition at 10 µM
[9] = biological target: Voltage-gated inwardly rectifying potassium channel KCNH2 (Homo sapiens, UniProt Q12809); also: in other assays of this panel Not Active means under 50% inhibition at 10 µM
Androgen receptor = biological target: T4, Androgen receptor (Rattus norvegicus, UniProt P15207); also: in other assays of this panel Not Active means under 50% inhibition at 10 µM
T4 sequence (P15207 whole entry): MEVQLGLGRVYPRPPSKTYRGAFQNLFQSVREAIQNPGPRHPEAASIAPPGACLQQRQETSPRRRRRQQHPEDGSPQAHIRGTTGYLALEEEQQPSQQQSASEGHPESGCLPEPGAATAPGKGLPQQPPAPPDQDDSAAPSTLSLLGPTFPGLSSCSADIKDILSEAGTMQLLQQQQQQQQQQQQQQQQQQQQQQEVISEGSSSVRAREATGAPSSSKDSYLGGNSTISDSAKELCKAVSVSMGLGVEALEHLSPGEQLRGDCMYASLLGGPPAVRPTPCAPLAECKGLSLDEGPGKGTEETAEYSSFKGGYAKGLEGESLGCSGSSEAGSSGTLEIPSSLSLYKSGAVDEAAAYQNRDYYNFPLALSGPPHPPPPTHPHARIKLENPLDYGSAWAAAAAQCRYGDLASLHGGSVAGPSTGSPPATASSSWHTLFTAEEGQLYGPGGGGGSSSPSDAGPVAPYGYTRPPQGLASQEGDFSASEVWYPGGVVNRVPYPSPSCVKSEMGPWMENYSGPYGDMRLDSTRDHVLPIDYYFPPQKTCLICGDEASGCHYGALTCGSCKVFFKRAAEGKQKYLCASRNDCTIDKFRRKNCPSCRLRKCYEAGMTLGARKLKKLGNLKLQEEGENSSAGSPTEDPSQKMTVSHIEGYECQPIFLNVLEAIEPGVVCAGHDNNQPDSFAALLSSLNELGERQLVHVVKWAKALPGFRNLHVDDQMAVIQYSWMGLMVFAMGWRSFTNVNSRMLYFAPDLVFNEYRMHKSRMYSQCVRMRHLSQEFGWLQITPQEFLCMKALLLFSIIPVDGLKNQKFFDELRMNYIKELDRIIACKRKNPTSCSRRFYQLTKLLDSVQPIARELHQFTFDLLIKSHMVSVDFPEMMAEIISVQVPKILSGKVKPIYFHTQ

5-hydroxytryptamine receptor 4, sequence (O70528 whole entry): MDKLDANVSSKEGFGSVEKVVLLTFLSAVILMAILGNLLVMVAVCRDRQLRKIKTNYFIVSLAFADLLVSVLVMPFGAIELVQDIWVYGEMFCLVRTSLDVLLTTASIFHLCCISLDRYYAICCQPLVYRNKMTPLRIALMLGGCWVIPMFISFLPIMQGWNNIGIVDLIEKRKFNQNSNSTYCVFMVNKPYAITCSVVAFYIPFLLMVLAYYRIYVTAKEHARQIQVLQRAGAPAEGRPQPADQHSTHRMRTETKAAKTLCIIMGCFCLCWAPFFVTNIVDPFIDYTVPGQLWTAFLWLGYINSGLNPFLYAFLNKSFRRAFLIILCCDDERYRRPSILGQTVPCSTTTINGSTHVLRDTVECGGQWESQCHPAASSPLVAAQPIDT
Cytochrome P450 2C19, sequence (P33261 whole entry): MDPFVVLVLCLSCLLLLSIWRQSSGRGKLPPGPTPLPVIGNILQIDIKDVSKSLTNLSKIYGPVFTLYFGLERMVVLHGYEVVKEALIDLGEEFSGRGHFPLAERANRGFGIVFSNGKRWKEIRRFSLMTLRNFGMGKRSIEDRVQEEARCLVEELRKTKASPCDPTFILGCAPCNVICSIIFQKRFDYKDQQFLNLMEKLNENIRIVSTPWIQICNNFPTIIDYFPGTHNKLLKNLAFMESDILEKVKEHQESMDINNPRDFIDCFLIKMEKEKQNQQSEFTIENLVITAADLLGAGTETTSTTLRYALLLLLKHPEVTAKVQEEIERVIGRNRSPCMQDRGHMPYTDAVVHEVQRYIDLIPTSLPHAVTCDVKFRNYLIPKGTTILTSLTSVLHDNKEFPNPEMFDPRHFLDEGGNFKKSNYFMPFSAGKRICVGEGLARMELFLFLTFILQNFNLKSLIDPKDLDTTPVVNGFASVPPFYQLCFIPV
Cytochrome P450 2D6, sequence (P10635 whole entry): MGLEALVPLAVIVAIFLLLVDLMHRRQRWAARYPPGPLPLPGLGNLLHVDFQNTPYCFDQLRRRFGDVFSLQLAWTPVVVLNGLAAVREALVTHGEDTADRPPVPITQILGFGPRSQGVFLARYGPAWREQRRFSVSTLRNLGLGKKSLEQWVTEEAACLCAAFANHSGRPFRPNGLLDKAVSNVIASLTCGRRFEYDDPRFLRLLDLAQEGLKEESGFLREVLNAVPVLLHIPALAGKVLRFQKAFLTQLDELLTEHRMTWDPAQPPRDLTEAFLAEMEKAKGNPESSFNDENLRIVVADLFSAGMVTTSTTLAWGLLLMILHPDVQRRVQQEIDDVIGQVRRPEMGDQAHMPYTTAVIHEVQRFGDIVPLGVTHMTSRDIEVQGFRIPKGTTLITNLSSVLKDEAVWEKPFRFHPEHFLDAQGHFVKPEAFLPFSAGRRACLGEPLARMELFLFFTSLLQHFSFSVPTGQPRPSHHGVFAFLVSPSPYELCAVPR
Beta-1 adrenergic receptor, sequence (P08588 whole entry): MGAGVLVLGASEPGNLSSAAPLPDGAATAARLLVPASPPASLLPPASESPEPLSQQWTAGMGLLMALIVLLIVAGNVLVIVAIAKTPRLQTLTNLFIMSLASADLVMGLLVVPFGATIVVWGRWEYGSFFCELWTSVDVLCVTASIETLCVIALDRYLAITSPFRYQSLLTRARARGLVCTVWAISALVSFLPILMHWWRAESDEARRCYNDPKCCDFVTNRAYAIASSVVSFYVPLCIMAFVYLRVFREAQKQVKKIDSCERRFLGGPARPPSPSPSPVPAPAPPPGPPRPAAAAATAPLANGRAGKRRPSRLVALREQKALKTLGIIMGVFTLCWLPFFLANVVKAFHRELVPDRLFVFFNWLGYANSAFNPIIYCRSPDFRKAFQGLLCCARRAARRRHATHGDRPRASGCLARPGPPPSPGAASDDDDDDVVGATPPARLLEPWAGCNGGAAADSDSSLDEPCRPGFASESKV
Voltage-gated inwardly rectifying potassium channel KCNH2, sequence (Q12809 whole entry): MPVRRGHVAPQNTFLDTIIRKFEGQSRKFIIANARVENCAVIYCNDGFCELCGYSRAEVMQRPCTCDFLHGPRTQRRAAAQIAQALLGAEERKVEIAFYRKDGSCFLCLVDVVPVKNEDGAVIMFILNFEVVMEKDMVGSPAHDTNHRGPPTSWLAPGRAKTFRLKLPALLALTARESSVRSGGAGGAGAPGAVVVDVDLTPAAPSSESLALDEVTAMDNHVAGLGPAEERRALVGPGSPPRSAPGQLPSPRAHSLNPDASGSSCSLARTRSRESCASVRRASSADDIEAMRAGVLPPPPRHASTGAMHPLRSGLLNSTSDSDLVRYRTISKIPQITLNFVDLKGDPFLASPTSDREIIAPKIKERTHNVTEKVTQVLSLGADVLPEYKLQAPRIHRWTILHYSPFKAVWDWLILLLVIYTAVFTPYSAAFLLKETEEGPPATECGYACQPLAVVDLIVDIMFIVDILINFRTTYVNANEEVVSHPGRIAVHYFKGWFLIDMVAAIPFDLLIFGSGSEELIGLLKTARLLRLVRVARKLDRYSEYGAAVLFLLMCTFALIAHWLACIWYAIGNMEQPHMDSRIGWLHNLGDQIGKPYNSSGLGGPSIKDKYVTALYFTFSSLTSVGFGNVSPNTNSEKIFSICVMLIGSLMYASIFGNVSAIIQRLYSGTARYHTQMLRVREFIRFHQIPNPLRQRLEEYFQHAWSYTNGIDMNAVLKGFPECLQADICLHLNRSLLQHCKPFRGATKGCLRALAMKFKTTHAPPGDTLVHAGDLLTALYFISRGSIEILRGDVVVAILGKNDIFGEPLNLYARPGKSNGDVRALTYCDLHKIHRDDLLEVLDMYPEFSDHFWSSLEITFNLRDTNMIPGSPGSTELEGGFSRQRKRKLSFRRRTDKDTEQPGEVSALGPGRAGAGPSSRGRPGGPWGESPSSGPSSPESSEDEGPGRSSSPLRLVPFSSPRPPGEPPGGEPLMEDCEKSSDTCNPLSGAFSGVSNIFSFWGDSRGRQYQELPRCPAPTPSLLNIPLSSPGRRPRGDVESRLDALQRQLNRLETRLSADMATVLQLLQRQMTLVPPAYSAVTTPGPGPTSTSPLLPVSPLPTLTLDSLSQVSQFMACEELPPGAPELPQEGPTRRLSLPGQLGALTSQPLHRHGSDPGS

| Compound | IC50 (Substance-K receptor) | IC50 [1] | Ki [1] | IC50 [2] | IC50 [3] | IC50 [4] | IC50 [5] | IC50 ([6]; cho-k1) | IC50 [7] | IC50 [8] | Ki [8] | IC50 (Cytochrome P450 2D6) [nM] | IC50 (Cytochrome P450 2C19) [nM] | also measured |
| --- | --- | --- | --- | --- | --- | --- | --- | --- | --- | --- | --- | --- | --- | --- |
| CNC(=O)Oc1ccc2c(c1)[C@]1(C)CCN(C)[C@@H]1N2C [PHYSOSTIGMINE] | Not Active | Not Active | Not Active | Not Active | Not Active | Not Active | Not Active | Not Active | Not Active | Not Active | Not Active | 200 | – | – |
| CNCCC=C1c2ccccc2CCc2ccccc21 [NORTRIPTYLINE] | Not Active | – | – | Not Active | Not Active | Not Active | Not Active | – | Not Active | Not Active | Not Active | 1000 | 3000 | IC50 ([1]; read-out: IC50): 2800 nM; Ki ([1]; read-out: Ki): 2490 nM; IC50 ([6]; read-out: IC50): 347 nM; Ki ([6]; read-out: Ki): 123 nM |
| Cc1c(-c2ccccc2)oc2c(C(=O)OCCN3CCCCC3)cccc2c1=O [FLAVOXATE] | Not Active | Not Active | Not Active | Not Active | Not Active | Not Active | Not Active | Not Active | Not Active | Not Active | Not Active | – | – | IC50 [9]: 24100 nM; Ki [9]: 19800 nM |
| COc1ccc(CN(CCN(C)C)c2ccccn2)cc1 [PYRILAMINE] | Not Active | Not Active | Not Active | Not Active | Not Active | Not Active | Not Active | Not Active | Not Active | Not Active | Not Active | 300 | – | IC50 [9]: 12600 nM; Ki [9]: 10300 nM |
| CC(=O)O[C@]1(C(C)=O)CC[C@H]2[C@@H]3C=C(Cl)C4=CC(=O)CC[C@]4(C)[C@H]3CC[C@@]21C [CHLORMADINONE ACETATE] | Not Active | Not Active | Not Active | Not Active | Not Active | Not Active | Not Active | Not Active | Not Active | Not Active | Not Active | – | 3000 | – |
| CCc1ccc(C(=O)C(C)CN2CCCCC2)cc1 (stereo not given) [EPERISONE] | Not Active | Not Active | Not Active | Not Active | Not Active | Not Active | Not Active | – | Not Active | Not Active | Not Active | 4900 | – | IC50 ([6]; read-out: IC50): 2340 nM; Ki ([6]; read-out: Ki): 831 nM |
| O=C1OC2(c3ccc(O)cc3Oc3cc(O)ccc32)c2ccccc21 [FLUORESCEIN] | Not Active | Not Active | Not Active | Not Active | Not Active | Not Active | Not Active | Not Active | Not Active | Not Active | Not Active | – | 907 | – |
| CARBOPLATIN | Not Active | Not Active | Not Active | Not Active | Not Active | Not Active | Not Active | Not Active | Not Active | Not Active | Not Active | – | – | Ki (Substance-K receptor): Not Active; IC50 (Androgen receptor): Not Active; Ki (Androgen receptor): Not Active; Ki [2]: Not Active; Ki [3]: Not Active; Ki [4]: Not Active; Ki [5]: Not Active; Ki ([6]; cho-k1): Not Active; Ki [7]: Not Active |

— ChEMBL document CHEMBL1909046, “DrugMatrix in vitro pharmacology data”
